Paper PMC2806265, “Divergence of allosteric effects of rapacuronium on binding and function of muscarinic receptors” (BMC Pharmacology, 2009)
Marks after values point to notes of the source that are not given here.

Tests used:
M1 muscarinic receptor = molecular target: T1, M1 muscarinic receptor (Homo sapiens, UniProt P11229); format: binding; conditions: + 100 μM rapacuronium
T1 construct: host or cells: CHO cells, stably transfected; membrane preparation
T1 sequence (P11229 1-460): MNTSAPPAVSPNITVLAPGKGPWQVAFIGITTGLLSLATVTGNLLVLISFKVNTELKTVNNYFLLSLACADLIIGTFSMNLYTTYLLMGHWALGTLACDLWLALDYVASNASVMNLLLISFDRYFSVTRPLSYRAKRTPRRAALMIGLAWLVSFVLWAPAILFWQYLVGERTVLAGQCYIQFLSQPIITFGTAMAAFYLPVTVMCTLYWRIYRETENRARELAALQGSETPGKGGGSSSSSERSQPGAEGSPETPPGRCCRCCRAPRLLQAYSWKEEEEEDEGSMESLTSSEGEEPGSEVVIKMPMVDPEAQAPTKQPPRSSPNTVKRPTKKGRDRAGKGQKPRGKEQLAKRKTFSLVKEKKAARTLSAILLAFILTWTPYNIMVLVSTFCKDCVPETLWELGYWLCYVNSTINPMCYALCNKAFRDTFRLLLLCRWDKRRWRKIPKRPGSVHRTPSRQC
Excerpt: (§1) y, radioligand binding at time x normalized to binding at time 0; koff1 and koff2, dissociation rate constants; f2, fraction of binding site with dissociation rate constant koff2. When both Eq. 7a and 7b were fitted to data the better fit was chosen based on sum of squares F-test and runs test.

M3 muscarinic receptor = molecular target: T2, M3 muscarinic receptor (Homo sapiens, UniProt P20309); format: binding
T2 construct: host or cells: CHO cells, stably transfected; membranes
Excerpt: as §1

M5 muscarinic receptor [1] = molecular target: T3, M5 muscarinic receptor (Homo sapiens, UniProt P08912); test: [3H]NMS dissociation
T3 sequence (P08912 1-532): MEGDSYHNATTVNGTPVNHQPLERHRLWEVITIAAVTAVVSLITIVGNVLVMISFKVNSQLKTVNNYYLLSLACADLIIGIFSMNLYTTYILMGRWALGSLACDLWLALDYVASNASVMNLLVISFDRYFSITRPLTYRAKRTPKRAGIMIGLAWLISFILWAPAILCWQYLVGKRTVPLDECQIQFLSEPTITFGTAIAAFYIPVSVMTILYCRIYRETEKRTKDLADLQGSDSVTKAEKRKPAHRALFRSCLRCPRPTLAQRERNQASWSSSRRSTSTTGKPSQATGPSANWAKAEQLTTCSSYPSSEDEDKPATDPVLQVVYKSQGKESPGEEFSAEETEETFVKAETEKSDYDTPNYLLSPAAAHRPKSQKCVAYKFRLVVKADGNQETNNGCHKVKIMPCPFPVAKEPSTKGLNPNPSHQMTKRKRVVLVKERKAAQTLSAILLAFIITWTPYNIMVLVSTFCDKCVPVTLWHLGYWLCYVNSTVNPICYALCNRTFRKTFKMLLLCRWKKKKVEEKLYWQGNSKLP

M5 muscarinic receptor [2] = molecular target: T3, M5 muscarinic receptor; test: Effect of rapacuronium on low-affinity ACh binding ([3H]NMS + GTPγS + ACh); set-up: host or cells: CHO cells, stably transfected; membranes
Excerpt: (§2) […]. Data are expressed as percent of specific binding in the absence of rapacuronium. […]. […] Data are means ± SE from 3 independent experiments performed in quadruplicates. Curves are fits of Eq. 3 (circles) and Eq. 4 (squares and triangles) to data prior to normalization.
(§3) […]. […] […].

M4 muscarinic receptor = molecular target: T4, M4 muscarinic receptor (Homo sapiens, UniProt P08173); test: as above; set-up: host or cells: CHO cells, stably transfected; membranes
T4 sequence (P08173 1-479): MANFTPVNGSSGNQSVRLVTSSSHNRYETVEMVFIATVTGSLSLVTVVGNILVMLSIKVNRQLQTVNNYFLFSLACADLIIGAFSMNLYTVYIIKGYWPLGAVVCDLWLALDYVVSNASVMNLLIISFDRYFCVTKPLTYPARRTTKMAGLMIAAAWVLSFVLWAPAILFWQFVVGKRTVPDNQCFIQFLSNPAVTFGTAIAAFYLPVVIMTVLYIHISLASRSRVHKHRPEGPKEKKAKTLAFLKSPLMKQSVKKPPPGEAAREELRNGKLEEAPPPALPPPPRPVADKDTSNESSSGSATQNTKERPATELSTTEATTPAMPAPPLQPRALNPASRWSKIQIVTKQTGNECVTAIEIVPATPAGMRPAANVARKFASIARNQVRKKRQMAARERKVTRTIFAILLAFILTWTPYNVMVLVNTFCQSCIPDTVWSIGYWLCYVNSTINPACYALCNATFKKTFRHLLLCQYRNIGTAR
Excerpt: as §2, §3

M2 muscarinic receptor = molecular target: T5, M2 muscarinic receptor (Homo sapiens, UniProt P08172); test: [3H]ACh saturation binding; set-up: host or cells: CHO cells, stably transfected; membrane preparation
T5 sequence (P08172 1-466): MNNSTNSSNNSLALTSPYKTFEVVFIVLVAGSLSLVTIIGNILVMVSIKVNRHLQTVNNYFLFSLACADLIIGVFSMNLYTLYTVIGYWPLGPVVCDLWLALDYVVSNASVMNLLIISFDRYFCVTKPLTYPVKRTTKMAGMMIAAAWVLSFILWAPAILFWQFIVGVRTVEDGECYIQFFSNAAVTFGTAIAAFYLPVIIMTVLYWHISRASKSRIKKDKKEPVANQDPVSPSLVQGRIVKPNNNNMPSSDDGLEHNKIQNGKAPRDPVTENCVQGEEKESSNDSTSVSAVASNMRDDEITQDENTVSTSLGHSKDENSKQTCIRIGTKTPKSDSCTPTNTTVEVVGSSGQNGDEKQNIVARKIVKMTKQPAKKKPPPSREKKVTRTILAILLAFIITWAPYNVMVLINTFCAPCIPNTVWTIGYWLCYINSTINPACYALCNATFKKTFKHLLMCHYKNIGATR
Excerpt: BMAX, maximum binding capacity; KD, equilibrium dissociation constant.

[3] = system: nontransfected CHO-K1 cells; test: [35S]GTPγS binding to membranes from nontransfected cells; format: biochemical, Chinese hamster
Procedure: Figure 6 Effects of rapacuronium on ACh-induced [^35S]GTPγS binding to membranes. Membranes from CHO cells expressing individual subtypes of muscarinic receptors or nontransfected CHO-K1 cells were preincubated for 60 min with buffer (closed symbols) or with rapacuronium (open symbols). […] Data are expressed as fold increase of basal [^35S]GTPγS binding and are presented as means ± SE from 3 independent experiments performed in quadruplicates. Curves are fits of Eq. 5 to data.

T2 sequence (P20309 whole entry): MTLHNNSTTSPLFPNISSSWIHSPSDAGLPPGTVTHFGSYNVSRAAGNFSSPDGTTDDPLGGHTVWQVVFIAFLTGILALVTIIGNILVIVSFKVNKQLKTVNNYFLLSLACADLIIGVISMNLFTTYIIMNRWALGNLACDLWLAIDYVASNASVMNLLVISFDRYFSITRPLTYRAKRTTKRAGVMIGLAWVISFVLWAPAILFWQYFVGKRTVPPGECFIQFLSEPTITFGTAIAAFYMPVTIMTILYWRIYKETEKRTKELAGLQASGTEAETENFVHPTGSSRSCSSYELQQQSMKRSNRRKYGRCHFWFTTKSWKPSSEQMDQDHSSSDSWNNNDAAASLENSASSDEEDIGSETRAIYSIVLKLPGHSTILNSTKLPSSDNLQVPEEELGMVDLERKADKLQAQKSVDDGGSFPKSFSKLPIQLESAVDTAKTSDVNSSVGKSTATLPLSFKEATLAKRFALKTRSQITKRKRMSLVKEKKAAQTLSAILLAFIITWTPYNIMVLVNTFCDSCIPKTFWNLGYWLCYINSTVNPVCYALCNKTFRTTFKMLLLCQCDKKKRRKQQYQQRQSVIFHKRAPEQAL

C=CC[N+]1([C@H]2C[C@H]3[C@@H]4CC[C@H]5C[C@H](OC(C)=O)[C@@H](N6CCCCC6)C[C@]5(C)[C@H]4CC[C@]3(C)[C@H]2OC(=O)CC)CCCCC1 [rapacuronium]
f2, fraction of sites with faster dissociation (M1 muscarinic receptor): 14 ± 3%
koff1 of [^3H]NMS dissociation (M1 muscarinic receptor): 0.014 ± 0.001* min^-1
koff2 of [^3H]NMS dissociation (M1 muscarinic receptor): 0.00567 ± 0.00083 s⁻¹
decrease in rate of [^3H]NMS dissociation (M3 muscarinic receptor; 100 μM rapacuronium): 40%
f2, fraction of sites with faster dissociation (M3 muscarinic receptor; + 100 μM rapacuronium): 20 ± 4%
koff1 of [^3H]NMS dissociation (M3 muscarinic receptor; + 100 μM rapacuronium): 0.031 ± 0.002* min^-1
koff2 of [^3H]NMS dissociation (M3 muscarinic receptor; + 100 μM rapacuronium): 0.000967 ± 0.00015 s⁻¹
decrease in rate of [^3H]NMS dissociation (M5 muscarinic receptor [1]; 100 μM rapacuronium): 40%
koff1 of [^3H]NMS dissociation (M5 muscarinic receptor [1]; + 100 μM rapacuronium, monophasic): 0.0078 ± 0.0004* min^-1
Kd (M5 muscarinic receptor [2]): 11.2 µM
pβ, cooperativity with ACh low affinity binding (M5 muscarinic receptor [2]; M5, negative value = negative cooperativity): -1.28 ± 0.07
Kd (M4 muscarinic receptor): 3.24 µM
decrease in ACh low-affinity binding (cooperativity) (M4 muscarinic receptor; M4): 36 times
pβ, cooperativity with ACh low affinity binding (M4 muscarinic receptor; M4, negative value = negative cooperativity): -1.56 ± 0.07
BMAX of [^3H]ACh (M2 muscarinic receptor; + 10 μM rapacuronium): 0.74 ± 0.07 fmol/μg of protein
BMAX of [^3H]ACh (M2 muscarinic receptor; + 100 μM rapacuronium): 0.77 ± 0.08 fmol/μg of protein
effect on [^35S]GTPγS binding [3]: did not decrease
